Molecular target: c-KIT (Homo sapiens, UniProt P10721)
Assay: c-KIT ADP-Glo biochemical assay
Conditions: class ranges
Procedure: The inhibitory activity against c-KIT was measured using ADP-Glo assay. The percent (%) inhibition at each concentration of compound is calculated based on and relative to the luminescence signal in the Max and Min control wells contained within each assay plate. The Max control wells contain enzyme and substrate as 0% inhibition, and the Min control wells only contain substrate without enzyme as 100% inhibition. The concentrations and % inhibition values for tested compounds are plotted and the concentration of compound required for 50% inhibition (IC50) is determined with a four-parameter logistic dose response equation. The ability of the compounds in Table 1 to inhibit c-KIT was determined.

c-KIT, sequence (P10721 26-976): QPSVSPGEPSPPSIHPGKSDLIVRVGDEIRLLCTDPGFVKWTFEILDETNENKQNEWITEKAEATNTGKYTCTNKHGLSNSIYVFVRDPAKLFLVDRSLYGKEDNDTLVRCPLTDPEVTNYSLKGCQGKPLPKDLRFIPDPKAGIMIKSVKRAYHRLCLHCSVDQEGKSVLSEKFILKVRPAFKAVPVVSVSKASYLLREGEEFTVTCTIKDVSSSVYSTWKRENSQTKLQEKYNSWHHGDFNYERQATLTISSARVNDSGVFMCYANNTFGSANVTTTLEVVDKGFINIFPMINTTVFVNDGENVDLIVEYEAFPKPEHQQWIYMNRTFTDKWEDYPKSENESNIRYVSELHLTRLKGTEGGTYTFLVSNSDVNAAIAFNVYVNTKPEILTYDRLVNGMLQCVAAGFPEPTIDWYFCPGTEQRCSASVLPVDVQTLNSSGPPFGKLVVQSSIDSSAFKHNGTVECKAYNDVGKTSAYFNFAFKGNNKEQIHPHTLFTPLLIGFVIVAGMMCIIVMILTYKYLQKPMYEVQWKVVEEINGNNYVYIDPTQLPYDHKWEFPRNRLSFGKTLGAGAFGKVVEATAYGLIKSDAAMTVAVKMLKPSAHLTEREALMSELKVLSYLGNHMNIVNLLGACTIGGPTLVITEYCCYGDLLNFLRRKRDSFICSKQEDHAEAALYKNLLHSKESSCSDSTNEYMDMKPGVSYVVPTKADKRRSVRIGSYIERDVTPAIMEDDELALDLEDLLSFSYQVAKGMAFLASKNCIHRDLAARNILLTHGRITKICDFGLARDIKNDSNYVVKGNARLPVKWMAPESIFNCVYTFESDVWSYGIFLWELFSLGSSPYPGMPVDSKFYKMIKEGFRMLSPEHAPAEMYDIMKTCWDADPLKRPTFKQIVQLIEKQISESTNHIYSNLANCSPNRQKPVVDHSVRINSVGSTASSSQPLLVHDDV

COC(=O)N1CC(c2nc(-c3cc(F)c(C)c(NC(=O)c4cnc5ccc(C)cn45)c3)no2)C1 [Compound C021, methyl 3-(3-(3-fluoro-4-methyl-5-(6-methylimidazo[1,2-a]pyridine-3-carboxamido)phenyl)-1,2,4-oxadiazol-5-yl)azetidine-1-carboxylate]
IC50: 100 to 1000 nM

Cc1c(F)cc(-c2noc([C@H]3C[C@@H]3F)n2)cc1NC(=O)c1cnc2cc(N3CCOCC3)ccn12 [Compound C014, N-(3-fluoro-5-(5-((1R,2S)-2-fluorocyclopropyl)-1,2,4-oxadiazol-3-yl)-2-methylphenyl)-7-morpholinoimidazo[1,2-a]pyridine-3-carboxamide]
IC50: 100 to 1000 nM
